US20130203817A1, “Novel Inhibitors of LYN Kinase” (VASSA INFORMATICS, priority 2012, published 2013)

Columns and labels:
[1] = system: mesenchymal breast cancer lines; details: at concentrations that inhibit LYN kinase activity; cited from earlier work
[2] = system: phosphorylated (activated) LYN; details: BT549 cells, Western blot; cited from earlier work
[3] = target: Lyn(h) (Homo sapiens, UniProt P07948); experiment: Millipore kinase profiling, Lyn; type: biochemical; details: VI201 at 100 μM
Description: (§1) The three compounds identified in Example 1 were tested for kinase activity at Millipore (Dundee UK). The compounds were shipped as 10 mM stocks in DMSO as per Millipore testing standards. The testing consisted of two initial phases:
(§2) (a) Profiling against a set of approximately 60 kinases, selected as representative of all kinases and current kinase drug targets, to determine the selectivity of the compounds; and, (b) IC50 testing against EGFR, the kinase target of the initial search template molecule.
(§3) In particular, compound VI201 inhibited three kinases, in one case restricting the activity to about 20% at 100 μM concentration (Table 1).

[4] = target: Pim-1(h) (Homo sapiens, UniProt P11309); experiment: Millipore kinase profiling, Pim-1; type: biochemical; details: VI201 at 100 μM
Description: as §1, §2, §3

[5] = target: WNK3(h) (Homo sapiens, UniProt Q9BYP7); experiment: Millipore kinase profiling, WNK3; type: biochemical; details: VI201 at 100 μM
Description: as §1, §2, §3

[6] = target: GSK3β kinase (Homo sapiens, UniProt P49841); experiment: Kinase profiling, GSK3β; type: biochemical; details: VI201 at 100 μM
Description: as §1, §2

[7] = target: Abl kinase (BCR-Abl) (Homo sapiens, UniProt P00519); experiment: Kinase profiling, Abl; type: biochemical; details: VI201 at 100 μM
Description: as §1, §2

Chain of WNK3(h) (Q9BYP7 whole entry): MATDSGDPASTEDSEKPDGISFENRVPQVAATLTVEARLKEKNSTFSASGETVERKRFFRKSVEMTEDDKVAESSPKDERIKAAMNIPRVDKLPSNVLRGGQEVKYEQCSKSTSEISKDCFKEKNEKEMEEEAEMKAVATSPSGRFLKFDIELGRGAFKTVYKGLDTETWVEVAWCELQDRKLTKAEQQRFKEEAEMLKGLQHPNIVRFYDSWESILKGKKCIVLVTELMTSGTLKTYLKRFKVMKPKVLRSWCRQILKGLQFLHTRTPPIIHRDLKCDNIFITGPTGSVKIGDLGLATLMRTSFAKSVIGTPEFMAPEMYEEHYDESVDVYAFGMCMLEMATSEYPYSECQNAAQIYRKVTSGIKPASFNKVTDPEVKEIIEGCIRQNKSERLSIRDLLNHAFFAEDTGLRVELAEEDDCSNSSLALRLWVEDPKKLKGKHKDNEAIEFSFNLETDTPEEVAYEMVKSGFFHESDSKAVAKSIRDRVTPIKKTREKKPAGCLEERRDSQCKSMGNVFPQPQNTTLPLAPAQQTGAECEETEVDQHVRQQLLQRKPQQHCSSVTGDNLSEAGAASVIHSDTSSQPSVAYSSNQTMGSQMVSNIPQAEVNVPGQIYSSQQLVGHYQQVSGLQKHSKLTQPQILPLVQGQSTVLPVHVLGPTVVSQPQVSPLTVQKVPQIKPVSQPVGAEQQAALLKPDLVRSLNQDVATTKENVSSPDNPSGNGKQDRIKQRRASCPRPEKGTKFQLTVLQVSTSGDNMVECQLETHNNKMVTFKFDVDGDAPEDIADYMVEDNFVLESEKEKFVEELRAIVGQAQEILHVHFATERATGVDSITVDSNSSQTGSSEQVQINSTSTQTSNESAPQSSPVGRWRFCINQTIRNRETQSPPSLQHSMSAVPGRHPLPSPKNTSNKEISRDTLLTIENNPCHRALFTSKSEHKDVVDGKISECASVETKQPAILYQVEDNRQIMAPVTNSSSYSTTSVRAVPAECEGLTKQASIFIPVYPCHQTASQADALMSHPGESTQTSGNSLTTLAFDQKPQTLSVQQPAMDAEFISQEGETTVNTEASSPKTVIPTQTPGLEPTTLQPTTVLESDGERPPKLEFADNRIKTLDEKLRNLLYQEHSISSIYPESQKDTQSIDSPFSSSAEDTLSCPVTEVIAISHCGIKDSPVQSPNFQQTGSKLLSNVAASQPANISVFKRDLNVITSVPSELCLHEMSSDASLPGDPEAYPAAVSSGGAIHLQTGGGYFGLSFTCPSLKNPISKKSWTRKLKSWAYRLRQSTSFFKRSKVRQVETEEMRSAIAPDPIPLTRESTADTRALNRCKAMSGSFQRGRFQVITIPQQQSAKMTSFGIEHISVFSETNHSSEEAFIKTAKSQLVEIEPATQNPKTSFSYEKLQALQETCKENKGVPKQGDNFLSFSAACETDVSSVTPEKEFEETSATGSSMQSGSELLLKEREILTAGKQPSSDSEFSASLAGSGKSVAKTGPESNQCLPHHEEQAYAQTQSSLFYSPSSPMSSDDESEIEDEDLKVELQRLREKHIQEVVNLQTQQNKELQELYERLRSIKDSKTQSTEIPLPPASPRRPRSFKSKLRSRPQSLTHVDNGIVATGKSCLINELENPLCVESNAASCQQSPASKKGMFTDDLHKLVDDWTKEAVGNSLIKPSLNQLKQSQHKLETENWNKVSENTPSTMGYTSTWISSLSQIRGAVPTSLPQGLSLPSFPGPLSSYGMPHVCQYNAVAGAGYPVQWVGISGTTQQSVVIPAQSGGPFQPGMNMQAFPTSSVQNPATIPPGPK
Chain of Lyn(h) (P07948 1-491 isoform P07948-2): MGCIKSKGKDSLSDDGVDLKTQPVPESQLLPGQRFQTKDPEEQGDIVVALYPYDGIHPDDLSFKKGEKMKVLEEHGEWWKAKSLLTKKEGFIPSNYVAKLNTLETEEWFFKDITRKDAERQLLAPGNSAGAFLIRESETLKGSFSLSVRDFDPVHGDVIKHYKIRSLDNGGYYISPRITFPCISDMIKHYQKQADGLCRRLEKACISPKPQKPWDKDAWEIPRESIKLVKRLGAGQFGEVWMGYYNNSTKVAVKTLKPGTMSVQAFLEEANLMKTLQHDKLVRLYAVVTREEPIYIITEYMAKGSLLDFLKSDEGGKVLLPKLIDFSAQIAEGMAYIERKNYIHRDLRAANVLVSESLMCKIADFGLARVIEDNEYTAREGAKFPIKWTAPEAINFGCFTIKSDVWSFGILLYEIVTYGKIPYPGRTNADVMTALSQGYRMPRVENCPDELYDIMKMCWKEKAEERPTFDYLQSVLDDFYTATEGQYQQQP
Chain of Pim-1(h) (P11309 whole entry): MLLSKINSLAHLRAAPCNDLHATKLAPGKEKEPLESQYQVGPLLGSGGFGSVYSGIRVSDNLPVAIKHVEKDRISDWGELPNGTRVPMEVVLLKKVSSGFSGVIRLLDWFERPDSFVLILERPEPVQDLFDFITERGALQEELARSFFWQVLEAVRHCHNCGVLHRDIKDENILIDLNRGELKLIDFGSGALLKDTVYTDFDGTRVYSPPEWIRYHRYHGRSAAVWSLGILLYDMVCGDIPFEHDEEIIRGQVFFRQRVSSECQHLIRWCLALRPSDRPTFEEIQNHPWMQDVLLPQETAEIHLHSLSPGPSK
Chain of GSK3β kinase (P49841 whole entry): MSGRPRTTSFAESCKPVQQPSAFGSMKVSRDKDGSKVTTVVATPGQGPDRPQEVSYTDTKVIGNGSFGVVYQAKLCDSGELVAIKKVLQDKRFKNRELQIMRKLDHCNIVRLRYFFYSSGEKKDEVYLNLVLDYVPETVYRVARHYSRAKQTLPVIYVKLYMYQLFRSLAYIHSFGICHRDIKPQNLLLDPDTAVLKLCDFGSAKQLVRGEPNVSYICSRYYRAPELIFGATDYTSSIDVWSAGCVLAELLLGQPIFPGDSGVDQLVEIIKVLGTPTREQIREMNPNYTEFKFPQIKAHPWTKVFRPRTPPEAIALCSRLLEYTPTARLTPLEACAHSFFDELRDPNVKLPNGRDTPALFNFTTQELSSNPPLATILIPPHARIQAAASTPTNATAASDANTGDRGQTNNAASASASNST
Chain of Abl kinase (BCR-Abl) (P00519 27-1130 limits assumed): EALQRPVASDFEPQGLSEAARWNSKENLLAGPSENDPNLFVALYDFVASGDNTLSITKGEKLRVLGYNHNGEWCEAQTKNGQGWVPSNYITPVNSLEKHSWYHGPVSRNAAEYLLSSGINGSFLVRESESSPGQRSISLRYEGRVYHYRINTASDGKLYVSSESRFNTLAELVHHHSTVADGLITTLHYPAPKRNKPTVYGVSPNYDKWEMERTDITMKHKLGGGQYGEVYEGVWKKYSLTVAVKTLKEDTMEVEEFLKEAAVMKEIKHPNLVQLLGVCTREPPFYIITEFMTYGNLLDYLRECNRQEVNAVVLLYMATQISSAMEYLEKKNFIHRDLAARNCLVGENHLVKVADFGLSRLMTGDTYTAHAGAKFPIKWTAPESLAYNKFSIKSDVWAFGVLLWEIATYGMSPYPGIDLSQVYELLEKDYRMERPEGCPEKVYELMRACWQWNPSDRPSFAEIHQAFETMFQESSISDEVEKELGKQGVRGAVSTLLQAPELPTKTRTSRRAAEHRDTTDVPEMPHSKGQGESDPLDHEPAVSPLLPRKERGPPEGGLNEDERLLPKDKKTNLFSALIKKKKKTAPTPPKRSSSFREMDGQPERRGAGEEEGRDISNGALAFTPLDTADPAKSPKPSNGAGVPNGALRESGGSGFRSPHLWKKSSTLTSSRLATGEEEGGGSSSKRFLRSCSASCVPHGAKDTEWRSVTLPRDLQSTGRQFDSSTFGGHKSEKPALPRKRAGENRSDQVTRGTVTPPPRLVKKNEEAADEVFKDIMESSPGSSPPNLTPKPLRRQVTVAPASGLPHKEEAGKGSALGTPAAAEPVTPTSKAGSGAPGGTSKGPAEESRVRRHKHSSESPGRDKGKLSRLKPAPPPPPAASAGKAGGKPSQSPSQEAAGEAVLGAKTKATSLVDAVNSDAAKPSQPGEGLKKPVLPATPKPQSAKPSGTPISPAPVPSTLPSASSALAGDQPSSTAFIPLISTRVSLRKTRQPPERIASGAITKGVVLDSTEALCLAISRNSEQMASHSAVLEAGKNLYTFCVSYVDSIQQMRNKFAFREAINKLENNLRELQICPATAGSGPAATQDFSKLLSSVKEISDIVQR

inhibition of LYN kinase [3] | inhibition of Pim-1 kinase [4] | inhibition of WNK3 kinase [5] | inhibition of GSK3β kinase [6] | inhibition of Abl kinase (BCR-Abl) [7] | Molecule | cell invasion [1] | cell proliferation [1] | phosphorylated (activated) LYN [2]
 |  |  |  |  | Cc1nc(Nc2ncc(C(=O)Nc3c(C)cccc3Cl)s2)cc(N2CCN(CCO)CC2)n1 [Dasatinib, N-(2-chloro-6-methylphenyl)-2-[[6-[4-(2-hydroxyethyl)-1-piperazinyl]-2-methyl-4-pyrimidinyl]amino]-5-thiazole carboxamide] | blocked invasion | not proliferation | decreased phosphorylated (activated) LYN
82% | 44% | 37% | 26% | 5% | N-(2,3-dimethylphenyl)-3-(3-(pyridin-2-yl)-1,2,4-thiadiazol-5-yl)propanamide [VI201] |  |  | 
